The values that follow come from ChEMBL document CHEMBL3044532, “Integrated control of cotton root rot disease by mixing fungal biocontrol agents and resistance inducers” (2009).

What all share (format): functional
In assay [1] the test system is Gossypium barbadense. Put plainly: Induction of systemic acquired resistance against Pythium debaryanum AUSB 26351 in Gossypium barbadense seeds assessed as reduction of disease index for germination under greenhouse condition at 0.05 ml/L after 7 days relative to infected control. Further details: scale not given: the % may be the effect or the level left.
Assay [2] concerns Gossypium barbadense. The assay is described as follows: Induction of systemic acquired resistance against Fusarium oxysporum AUSB 26325 in Gossypium barbadense seeds assessed as increase of germination under greenhouse condition at 0.05 ml/L after 7 days relative to control.
The test system of assay [3] is Gossypium barbadense. The assay is described as follows: Induction of systemic acquired resistance against Fusarium oxysporum AUSB 26325 in Gossypium barbadense seeds assessed as reduction of disease index for germination under greenhouse condition at 0.05 ml/L after 7 days relative to infected control. Further details: scale not given: the % may be the effect or the level left.

For assay [4], the system named is Gossypium barbadense. The assay is described as follows: Induction of systemic acquired resistance against Fusarium oxysporum AUSB 26325 in Gossypium barbadense seeds assessed as increase of fresh weight of seedling under greenhouse condition at 0.05 ml/L after 7 days.
The subject of assay [5] is Gossypium barbadense. The assay is described as follows: Induction of systemic acquired resistance against Pythium debaryanum AUSB 26351 in Gossypium barbadense seeds assessed as increase of dry weight of seedling under greenhouse condition at 0.05 ml/L after 7 days.
In assay [6] the test system is Gossypium barbadense. Put plainly: Induction of systemic acquired resistance against Pythium debaryanum AUSB 26351 in Gossypium barbadense seeds assessed as increase of germination under greenhouse condition at 0.05 ml/L after 7 days relative to control.
Assay [7] relates to Gossypium barbadense. Put plainly: Induction of systemic acquired resistance against Pythium debaryanum AUSB 26351 in Gossypium barbadense seeds assessed as increase of fresh weight of seedling under greenhouse condition at 0.05 ml/L after 7 days.
For assay [8], the system named is Gossypium barbadense. The assay is described as follows: Induction of systemic acquired resistance against Fusarium oxysporum AUSB 26325 in Gossypium barbadense seeds assessed as increase of dry weight of seedling under greenhouse condition at 0.05 ml/L after 7 days.

As for `CSC(=O)c1cccc2nnsc12` [ACIBENZOLAR-S-METHYL], the Activity was 60% in assay [1]; 40.7% in assay [2]; 45.3% in assay [3]; 8.3 g in assay [4]; 0.2 g in assay [5]; 40% in assay [6]. For the same compound, the Activity in assay [7] turned out to be 2 g; in assay [8] it was 0.9 g.
